Reference: patent US11918561B2, “Treatment of breast cancer using combination therapies comprising GDC-9545 and a CDK4/6 inhibitor” (Genentech, Inc., priority 2020, dated 2024)

Key:
[1] = system: ESR1 mutant allele (ctDNA); assay: ctDNA ESR1 mutant allele frequency, change from baseline; type: in vivo, human; conditions: all patients in both cohorts (n=26)
[2] = system: PR; assay: Pharmacodynamics: PR protein level in paired pre- and on-treatment biopsies; type: in vivo, human; conditions: 7/8, cohort not stated
[3] = system: patients with ER+ (HER2−) metastatic breast cancer; conditions: human, in vivo
From the text: A graded adverse event refers to the severity grading scale as established for by NCI CTCAE. In one embodiment, the adverse event is graded in accordance with the table below.
No prior treatment with CDK4/6i was allowed in patients receiving palbociclib.

[4] = system: patients with ER+ (HER2−) metastatic breast cancer; assay: Reason for discontinuation of study treatment; type: in vivo; conditions: Cohort A n = 40, Cohort B n = 48
[5] = biological target: T1, ER (Homo sapiens, UniProt P03372); assay: Pharmacodynamics: ER protein level in paired pre- and on-treatment biopsies; type: in vivo; conditions: 10/12; pre- and on-treatment biopsies (n=12); cohort not stated
T1 construct: from tissue; host or cells: patients' tumour biopsies (pre- and on-treatment)
T1 sequence (P03372 1-595): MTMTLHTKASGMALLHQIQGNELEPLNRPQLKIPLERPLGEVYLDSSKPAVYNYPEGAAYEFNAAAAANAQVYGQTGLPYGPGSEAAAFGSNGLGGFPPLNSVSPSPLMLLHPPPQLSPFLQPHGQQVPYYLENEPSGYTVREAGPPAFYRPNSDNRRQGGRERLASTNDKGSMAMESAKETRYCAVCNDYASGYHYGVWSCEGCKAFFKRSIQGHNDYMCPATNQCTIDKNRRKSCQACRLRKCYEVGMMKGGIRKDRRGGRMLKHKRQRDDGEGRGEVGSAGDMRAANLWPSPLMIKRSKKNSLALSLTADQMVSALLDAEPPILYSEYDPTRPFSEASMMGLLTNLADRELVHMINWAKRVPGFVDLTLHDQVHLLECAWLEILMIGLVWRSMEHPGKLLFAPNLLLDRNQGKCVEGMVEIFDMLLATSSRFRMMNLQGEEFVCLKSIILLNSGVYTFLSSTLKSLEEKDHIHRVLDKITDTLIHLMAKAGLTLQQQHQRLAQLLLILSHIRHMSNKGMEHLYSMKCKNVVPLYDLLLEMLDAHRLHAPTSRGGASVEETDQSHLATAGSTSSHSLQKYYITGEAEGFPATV

[6] = Pharmacokinetics of GDC-9545 and palbociclib in patients; type: in vivo, human
From the text: Pharmacokinetics. […] Palbociclib PK was not altered when given with GDC-9545 and was consistent with reported values.

[7] = system: ER pathway signature; assay: Pharmacodynamics: ER pathway signature score in paired biopsies; type: in vivo, human; conditions: 8/12; pre- and on-treatment biopsies (n=12); cohort not stated
From the text: An “ER pathway activity score” as used herein, refers to a numerical value that reflects mathematical difference between the E2-induced score and the E2-repressed score.
Breast cancer is a heterogeneous disease with many distinct subtypes as defined by molecular signatures and a diverse array of mutational profiles. Patients described herein can be tested for ER+ HER2− laBC or mBC using diagnostic methods, or kits to inform treating or predict of responsiveness of a pateint to the combination therapies described herein. In one embodiment, a patient can be tested by determining an ER pathway activity score such as those described in US Patent Application Publication 20200082944. In some embodiments, a patient sample is taken and tested to determine an ER pathway activity score. The score can be calculated using a 41-gene signature by subtracting an E2-repressed score (as determined from the average z-scored expression of genes comprising BAMBI, BCAS1, CCNG2, DDIT4, EGLN3, FAM171B, GRM4, IL1R1, LIPH, NBEA, PNPLA7, PSCA, SEMA3E, SSPO, STON1, TGFB3, TP531NP1, and TP531NP2) from an E2-induced score (as determined from the average z-scored expression of genes set forth in AGR3, AMZ1, AREG, C5AR2, CELSR2, CT62, FKBP4, FMN1, GREB1, IGFBP4, NOSIAP, NXPH3, OLFM1, PGR, PPMIJ, […], RBM24, RERG, RET, SGK3, SLC9A3R1, TFF1, and ZNF703).

[8] = system: ER+ (HER2−) metastatic breast cancer; assay: Clinical activity (clinical benefit, response, PFS; RECIST v1.1); type: in vivo, human
From the text: “Objective response rate” or “ORR” refers the percentage of patients with a confirmed complete response or partial response on two consecutive occasions ≥4 weeks apart, as determined by the investigator according to RECIST v1.1
“Progression free survival” or “PFS” refers to the time from enrollment to the date of the first recorded occurrence of disease progression, as determined by the investigator using RECIST v1.1 or death from any cause, whichever occurs first.
“Clinical benefit rate” or “CBR” refers to the percentage of patients with stable disease for at least 24 weeks or with confirmed complete or partial response, as determined by the investigator according to RECIST v1.1.
Clinical Activity. In Cohort A 22/40 patients (55%) derived clinical benefit defined as patients with CR, PR or first occurrence of progressive disease observed on or after 24 weeks.

[9] = Cohort A n = 40, Cohort B n = 48
[10] = of 31 (Cohort A) and 45 (Cohort B) patients with measurable disease

C[C@@H]1Cc2c([nH]c3ccccc23)[C@@H](c2c(F)cc(NC3CN(CCCF)C3)cc2F)N1CC(F)(F)CO [GDC-9545, 3-((1R,3R)-1-(2,6-difluoro-4-((1-(3-fluoropropyl)azetidin-3-yl)amino)phenyl)-3-methyl-1,3,4,9-tetrahydro-2H-pyrido[3,4-b]indol-2-yl)-2,2-difluoropropan-1-ol]
ctDNA ESR1 mutant allele frequency [1]: Decreases from baseline
Reduced PR protein levels, share of evaluable paired biopsies [2]: 88%
Bradycardia AEs reported, patients [3]: 8%
Grade 3 AEs related to GDC-9545 (others Grade 1-2) [3]: three Grade 3 events of fatigue, transaminase increased, and diarrhea
Heart rate (HR) changes upon completion of treatment [3]: returned to baseline
Patients who discontinued study treatment due to AEs [3]: No patients
Patients with an AE related to GDC-9545 [3]: 58%
Severity of bradycardia AEs [3]: all were Grade 1 and asymptomatic
Treatment-emergent AEs (TEAE) reported, patients [3]: 78%
Reason for discontinuation: Death [4]: 1 (3%) patients (%)
Reason for discontinuation: Disease progression [4]: 22 (55%) patients (%)
Reduced ER protein levels, share of evaluable paired biopsies [5]: 83%
Exposure of GDC-9545 in combination with palbociclib versus single agent GDC-9545 [6]: generally comparable
Reduced ER pathway signature scores, share of evaluable paired biopsies [7]: 67%
Clinical benefit in patients with prior fulvestrant treatment ([8]; Cohort A 2/7, Cohort B 2/3): 29%
Clinical benefit in patients with detectable ESR1 mutations at enrollment ([8]; Cohort A 8/13, Cohort B 11/11): 62%
Patients who derived clinical benefit (CR, PR or first progressive disease on or after 24 weeks) ([8]; Cohort A 22/40, Cohort B 35/48): 55%
Median PFS [8, 9]: 7.8 months
Patients with an event of disease progression or death for PFS calculations [8, 9]: 55%
CBR ([8]; Table 3): 55%
ORR ([8]; Table 3): 13%
Clinical benefit ([8]; number of patients as printed): 40
Patients with confirmed response [8, 10]: 4
Patients with unconfirmed response [8, 10]: 4
Partial response ([8]; patients with measurable disease at baseline, Cohort A 4/31, Cohort B 14/45): 13%

CC(=O)c1c(C)c2cnc(Nc3ccc(N4CCNCC4)cn3)nc2n(C2CCCC2)c1=O [Palbociclib, 6-acetyl-8-cyclopentyl-5-methyl-2-{[5-(piperazin-1-yl)pyridin-2-yl]amino}pyrido[2,3-d]pyrimidin-7(8H)-one, reference compound]
Palbociclib PK when given with GDC-9545 ([6]; consistent with reported values): not altered
